Experimental data as given in ChEMBL document CHEMBL1121749, “Beta-adrenergic blocking agents. 21. threo-1-(Aryloxy)-3-(alkylamino)butan-2-ols” (J Med Chem, 1981).
Activity calls are given as the source filed them. No cut-off for these calls is given here.

molecular target: Adrenergic receptor beta (Homo sapiens) (UniProt P08588+P07550+P13945); assay: Beta adrenoceptor blocking potency by inhibition of 50% of the tachycardia produced by a submaximal dose of the isoproterenol (0.2ug/kg, intravenously).; format: functional; conditions: Felis catus

| Compound | DOSE |
| --- | --- |
| CC(NC(C)(C)C)C(O)COc1ccccc1C#N (centres undefined) | inactive |
| CC(NC(C)(C)C)C(O)COc1ccccc1/C=C/C#N (centres undefined) | inactive |
| C=CCc1cc(CC(N)=O)ccc1OCC(O)C(C)NC(C)(C)C (centres undefined) | inactive |
| CCNC(C)C(O)COc1ccc(CC(N)=O)cc1 (centres undefined) | inactive |
| CCC(=O)Nc1cccc2c(OCC(O)C(C)NC(C)(C)C)cccc12 (centres undefined) | inactive |
| CC(NC(C)(C)C)C(O)COc1cccc2sccc12 (centres undefined) | inactive |
| CC(=O)Nc1ccc(OCC(O)C(C)N)cc1 (centres undefined) | inactive |
| CC(C)NC(C)C(O)COc1ccc(Cl)c(Cl)c1 (centres undefined) | inactive |
| CC(=O)Nc1ccc(OCC(O)C(C)NC(C)C)cc1 (centres undefined) | inactive |
| CCC(=O)Nc1ccc(OCC(O)C(C)NC(C)(C)C)c([N+](=O)[O-])c1 (centres undefined) | inactive |
| CC(C)NC(C)C(O)COc1ccc(CC(N)=O)cc1 (centres undefined) | inactive |
| CC(=O)Nc1ccc(OCC(O)C(C)NC(C)(C)CO)cc1 (centres undefined) | inactive |
| CCC(=O)Nc1cccc2c(OCC(O)C(C)NC(C)C)cccc12 (centres undefined) | inactive |
| Cc1csc2cccc(OCC(O)C(C)NC(C)(C)C)c12 (centres undefined) | inactive |
| CC(NC(C)(C)C)C(O)COc1cccc2ccccc12 (centres undefined) | inactive |
| COc1ccc(CCNC(C)C(O)COc2ccc(CC(N)=O)cc2)cc1OC (centres undefined) | inactive |
| CC(NC(C)(C)C)C(O)COc1ccc(CC(N)=O)cc1F (centres undefined) | inactive |
| COc1ccc(CCNC(C)C(O)COc2cccc3ccccc23)cc1OC (centres undefined) | inactive |
| CC(C)CNC(=O)c1ccc(OCC(O)C(C)NC(C)C)c(Cl)c1 (centres undefined) | inactive |
| CC(C)NC(C)C(O)COc1ccc(OCc2ccccc2)cc1 (centres undefined) | inactive |
| CC(C)NC(C)C(O)COc1ccc2ccccc2c1 (centres undefined) | inactive |
| CC(NC(C)(C)C)C(O)COc1ccc(CC(N)=O)cc1 (centres undefined) | inactive |
| CCOc1cc(CNC(=O)CC)ccc1OCC(O)C(C)NC(C)C (centres undefined) | inactive |
| CC(C)CNC(C)C(O)COc1cccc2ccccc12 (centres undefined) | inactive |
| Cc1ccc(OCC(O)C(C)NC(C)C)cc1 (centres undefined) | inactive |
| CC(C)NC(C)C(O)COc1ccccc1-c1nc2ccccc2s1 (centres undefined) | inactive |
| CCNC(C)C(O)COc1ccc(NC(C)=O)cc1 (centres undefined) | inactive |
| CCC(=O)Nc1ccc(OCC(O)C(C)NC(C)(C)C)cc1 (centres undefined) | inactive |
| CC(=O)Nc1ccc(OCC(O)C(C)NC(C)(C)C)cc1 (centres undefined) | inactive |
